Data: ChEMBL document CHEMBL1681753, “Discovery of new inhibitor for PDE3 by virtual screening” (Bioorg Med Chem Lett, 2011)
Activity calls are given as the source filed them. The rule behind the calls is not given here.

Tests used:
[1] = biological target: cGMP-inhibited 3',5'-cyclic phosphodiesterase 3B (Homo sapiens, UniProt Q13370); assay: Inhibition of human recombinant PDE3B
[2] = biological target: cGMP-inhibited 3',5'-cyclic phosphodiesterase 3A (Homo sapiens, UniProt Q14432); assay: Inhibition of human recombinant PDE3A
cGMP-inhibited 3',5'-cyclic phosphodiesterase 3A, sequence (Q14432 whole entry): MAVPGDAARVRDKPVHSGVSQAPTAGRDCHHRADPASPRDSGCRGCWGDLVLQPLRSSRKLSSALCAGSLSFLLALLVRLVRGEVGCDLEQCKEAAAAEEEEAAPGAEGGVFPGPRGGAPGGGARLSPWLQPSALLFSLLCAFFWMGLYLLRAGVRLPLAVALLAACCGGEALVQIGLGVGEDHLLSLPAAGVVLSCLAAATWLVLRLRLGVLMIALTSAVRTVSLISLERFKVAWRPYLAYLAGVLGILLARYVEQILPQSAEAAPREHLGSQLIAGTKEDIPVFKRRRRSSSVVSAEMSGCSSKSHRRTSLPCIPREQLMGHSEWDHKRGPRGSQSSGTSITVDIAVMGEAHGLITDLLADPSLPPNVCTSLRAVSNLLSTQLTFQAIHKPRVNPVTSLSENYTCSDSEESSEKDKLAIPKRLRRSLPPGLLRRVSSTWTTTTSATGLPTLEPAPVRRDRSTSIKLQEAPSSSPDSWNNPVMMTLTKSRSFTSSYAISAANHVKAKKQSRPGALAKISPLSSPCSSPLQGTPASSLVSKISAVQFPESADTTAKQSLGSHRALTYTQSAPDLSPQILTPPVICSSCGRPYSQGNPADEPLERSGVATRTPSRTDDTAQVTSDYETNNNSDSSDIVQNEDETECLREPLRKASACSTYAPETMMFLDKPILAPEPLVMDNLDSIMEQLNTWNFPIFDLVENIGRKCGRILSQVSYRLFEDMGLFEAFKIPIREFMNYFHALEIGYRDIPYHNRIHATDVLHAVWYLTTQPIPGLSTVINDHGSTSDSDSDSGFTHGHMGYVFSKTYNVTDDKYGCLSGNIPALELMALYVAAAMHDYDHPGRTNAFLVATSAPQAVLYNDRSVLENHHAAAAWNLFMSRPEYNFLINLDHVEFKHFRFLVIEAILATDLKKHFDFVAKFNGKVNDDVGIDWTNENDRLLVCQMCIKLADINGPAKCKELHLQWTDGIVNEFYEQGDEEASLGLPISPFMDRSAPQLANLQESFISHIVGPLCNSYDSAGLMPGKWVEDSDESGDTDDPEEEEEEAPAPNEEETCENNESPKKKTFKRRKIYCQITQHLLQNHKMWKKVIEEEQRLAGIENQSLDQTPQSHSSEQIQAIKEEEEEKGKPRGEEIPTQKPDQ

C3H 10T1/2 [3] = assay: Induction of lipolysis in mouse C3H10T1/2 assessed as glycerol concentration at 10 uM relative to control; assay type: functional
Adipocyte = assay: Induction of lipolysis in human Adipocyte assessed as glycerol concentration at 10 uM relative to control; assay type: functional
C3H 10T1/2 [4] = assay: Induction of lipolysis in mouse C3H10T1/2 assessed as glycerol concentration; assay type: functional, cell-based
3T3-L1 [5] = assay: Effect on adipogenesis in mouse 3T3L1 cells assessed as cellular lipid content by Oil red O staining; assay type: functional, cell-based
3T3-L1 [6] = assay: Effect on adipogenesis in mouse 3T3L1 cells assessed as adiponectin mRNA expression by RT-PCR method; assay type: functional, cell-based
3T3-L1 [7] = assay: Effect on adipogenesis in mouse 3T3L1 cells assessed as PPARgamma mRNA expression by RT-PCR method; assay type: functional, cell-based
3T3-L1 [8] = assay: Effect on adipogenesis in mouse 3T3L1 cells assessed as FABP4 mRNA expression by RT-PCR method; assay type: functional, cell-based
3T3-L1 [9] = assay: Effect on adipogenesis in mouse 3T3L1 cells assessed as G3PD mRNA expression by RT-PCR method; assay type: functional, cell-based

cGMP-inhibited 3',5'-cyclic phosphodiesterase 3B, sequence (Q13370 whole entry): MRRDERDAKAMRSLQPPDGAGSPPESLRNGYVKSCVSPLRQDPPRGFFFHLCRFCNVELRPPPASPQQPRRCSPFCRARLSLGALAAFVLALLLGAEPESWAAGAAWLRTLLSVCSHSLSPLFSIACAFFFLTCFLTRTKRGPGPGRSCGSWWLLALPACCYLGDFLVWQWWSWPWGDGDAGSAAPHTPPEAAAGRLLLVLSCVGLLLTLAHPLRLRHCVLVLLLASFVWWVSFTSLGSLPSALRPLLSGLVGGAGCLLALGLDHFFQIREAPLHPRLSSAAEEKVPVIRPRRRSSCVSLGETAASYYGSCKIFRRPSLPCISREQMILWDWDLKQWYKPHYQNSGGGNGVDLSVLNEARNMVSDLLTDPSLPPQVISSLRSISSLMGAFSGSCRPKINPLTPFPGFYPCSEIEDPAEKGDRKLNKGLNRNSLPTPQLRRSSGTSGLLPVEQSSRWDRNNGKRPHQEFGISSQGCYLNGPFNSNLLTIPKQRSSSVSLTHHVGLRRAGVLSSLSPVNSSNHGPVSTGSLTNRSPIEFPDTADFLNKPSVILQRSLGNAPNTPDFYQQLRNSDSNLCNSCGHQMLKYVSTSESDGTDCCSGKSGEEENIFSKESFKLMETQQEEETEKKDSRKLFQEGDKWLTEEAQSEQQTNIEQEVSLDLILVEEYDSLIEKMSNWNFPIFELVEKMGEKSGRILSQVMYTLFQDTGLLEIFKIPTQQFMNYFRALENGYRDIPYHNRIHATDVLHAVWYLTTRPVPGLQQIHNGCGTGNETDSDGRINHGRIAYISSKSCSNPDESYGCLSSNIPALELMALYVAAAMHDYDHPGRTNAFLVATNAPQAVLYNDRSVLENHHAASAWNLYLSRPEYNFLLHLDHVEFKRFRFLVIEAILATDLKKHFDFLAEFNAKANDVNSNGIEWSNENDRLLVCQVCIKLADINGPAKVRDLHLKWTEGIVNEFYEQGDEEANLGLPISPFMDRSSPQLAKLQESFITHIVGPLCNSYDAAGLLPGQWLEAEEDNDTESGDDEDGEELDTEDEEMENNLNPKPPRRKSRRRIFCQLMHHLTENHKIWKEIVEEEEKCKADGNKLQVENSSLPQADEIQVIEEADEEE

C/C(=N\NS(=O)(=O)c1ccc(C)cc1)c1ccc2c(c1)C(C)(C)C(=O)N2
IC50 [1]: 88.4 nM | IC50 [2]: 14.8 nM | Activity (C3H 10T1/2 [3]): 191.7% | Activity (Adipocyte): 171.5% | EC50 (C3H 10T1/2 [4]): 8.9 nM | Activity (3T3-L1 [5]): Active | Activity (3T3-L1 [6]): Active | Activity (3T3-L1 [7]): Active | Activity (3T3-L1 [8]): Active | Activity (3T3-L1 [9]): Active

Cc1ccc(S(=O)(=O)N/N=C2\CC(C)(C)Oc3ccc([N+](=O)[O-])cc32)cc1
Activity (C3H 10T1/2 [3]): 168.4% | Activity (Adipocyte): 116.67% | EC50 (C3H 10T1/2 [4]): 5.2 nM

CC(C)NCC(O)c1ccc(O)c(O)c1 (stereo not given) [ISOPROTERENOL]
Activity (C3H 10T1/2 [3]): 291.3% | Activity (Adipocyte): 214.39% | EC50 (C3H 10T1/2 [4]): 19 nM

CCCC(NS(=O)(=O)c1ccc2c(c1)CCCC(=O)N2)c1cccs1 (stereo not given)
Activity (C3H 10T1/2 [3]): 131.9% | Activity (Adipocyte): 130.2%

CC1=NN(S(=O)(=O)c2ccc(C)cc2)C(O)(C(F)(F)F)C1 (stereo not given)
Activity (C3H 10T1/2 [3]): 171.3% | Activity (Adipocyte): 116.67% | EC50 (C3H 10T1/2 [4]): 6.8 nM

CN(C(=O)CCCOc1ccc2[nH]c(=O)ccc2c1)C1CCCCC1 [CILOSTAMIDE]
IC50 [1]: 69.1 nM | Activity (C3H 10T1/2 [3]): 247.36% | Activity (Adipocyte): 192.4% | EC50 (C3H 10T1/2 [4]): 9.1 nM | Activity (3T3-L1 [5]): Active | Activity (3T3-L1 [6]): Active | Activity (3T3-L1 [7]): Active | Activity (3T3-L1 [8]): Active | Activity (3T3-L1 [9]): Active
